Legend:
Format in all cases: cell-based
[1] = system: human bladder cancer cell (T24); assay: Cell proliferation inhibition, MTS method, human bladder cancer cell T24
Experimental: (§1) The test was implemented by using the human lung cancer cell (LU99), two kind of the human gastric cancer cell (KATO III, MKN-45), the human prostate cancer cell (DU145), the human malignant melanoma cell (G-361), the human bladder cancer cell (T24), two kind of the human lymphoma cell (U937, Jurkat E6.1) and the human leukemia cell (HL60) as the cancer cell.
(§2) These cells were suspended in the each culture medium that the serum of 10% was added, and were dispensed in 96-well plate. And then, these were cultured in 5% CO2 at 37 degrees centigrade during a night. The test solution was prepared in the culture medium to the various concentrations, and was dispensed into the plate that the cells were set preliminarily. And further, these were cultured in 5% CO2 at 37 degrees centigrade for three days.
(§3) The cell proliferation after the medicine addition was measured on the 3rd day from the 1st day after the medicine addition by the MTS method (Kit for cell proliferation test manufactured by Promega Company, Cell Titer 96 Aqueous One Solution Cell Proliferation Assay).
(§4) The inhibition rate (%) of the cell proliferation was obtained from the measured MTS value by the following formula.
(§5) Inhibition rate(%)=(1−MTS value of medicine addition group/MTS value of medicine non-addition group)×100
Because the value which was obtained by the above-mentioned formula represents the inhibition rate of the cell proliferation, the higher the numerical value is, the higher the medicine effect is. It is deemed that the one whose value is 50% or more has the medicine effect. […]

[2] = system: human prostate cancer cell (DU145); assay: Cell proliferation inhibition, MTS method, human prostate cancer cell DU145
Experimental: as §1, §2, §3, §4, §5
(§6) Because the value which was obtained by the above-mentioned formula represents the inhibition rate of the cell proliferation, the higher the numerical value is, the higher the medicine effect is. It is deemed that the one whose value is 50% or more has the medicine effect.
(§7) The (compound 2) was prepared as the test solution, and the inhibition rate of the cell proliferation was measured by the method similar to the embodiment 7.

[3] = system: human gastric cancer cell (MKN-45); assay: Cell proliferation inhibition, MTS method, human gastric cancer cell MKN-45
Experimental: as §1, §2, §3, §4, §5, §6
(§8) The (compound 5) was prepared as the test solution, and the inhibition rate of the cell proliferation was measured by the method similar to the embodiment 7.
(§9) The (compound 6) was prepared as the test solution, and the inhibition rate of the cell proliferation was measured by the method similar to the embodiment 7.

[4] = system: human lymphoma cell (Jurkat E6.1); assay: Cell proliferation inhibition, MTS method, human lymphoma cell Jurkat E6.1
Experimental: (§10) The test solution was prepared by dissolving the (compound 1) into the DMSO (dimethylsulfoxide) with the concentration of 8 mg/ml.
as §1, §2, §3, §4, §5, §6

[5] = system: human lymphoma cell (U937); assay: Cell proliferation inhibition, MTS method, human lymphoma cell U937
Experimental: as §10, §1, §2, §3, §4, §5, §6, §7

[6] = system: human malignant melanoma cell (G-361); assay: Cell proliferation inhibition, MTS method, human malignant melanoma cell G-361
Experimental: as §1, §2, §3, §4, §5, §6, §8, §9

[7] = system: human lung cancer cell (LU99); assay: Cell proliferation inhibition, MTS method, human lung cancer cell LU99
Experimental: as §1, §2, §3, §4, §5, §6, §8, §9

[8] = system: human gastric cancer cell (KATO III); assay: Cell proliferation inhibition, MTS method, human gastric cancer cell KATO III
Experimental: as §10, §1, §2, §3, §4, §5, §6, §7

[9] = system: human leukemia cell (HL60); assay: Cell proliferation inhibition, MTS method, human leukemia cell HL60
Experimental: as §10, §1, §2, §3, §4, §5, §6

Compound | Inhibition rate of cell proliferation after 3 days from medicine addition ([1]; T24, 5 μg/ml) [%] | Inhibition rate of cell proliferation after 3 days from medicine addition ([1]; T24, 10 μg/ml) [%] | Inhibition rate of cell proliferation after 3 days from medicine addition ([1]; T24, 20 μg/ml) [%] | Inhibition rate of cell proliferation after 3 days from medicine addition ([2]; DU145, 5 μg/ml) [%] | Inhibition rate of cell proliferation after 3 days from medicine addition ([2]; DU145, 10 μg/ml) [%] | Inhibition rate of cell proliferation after 3 days from medicine addition ([3]; MKN-45, 5 μg/ml) [%] | Inhibition rate of cell proliferation after 3 days from medicine addition ([3]; MKN-45, 10 μg/ml) [%] | Inhibition rate of cell proliferation after 3 days from medicine addition ([3]; MKN-45, 20 μg/ml) [%] | Inhibition rate of cell proliferation after 3 days from medicine addition ([5]; U937, 5 μg/ml) [%] | Inhibition rate of cell proliferation after 3 days from medicine addition ([5]; U937, 10 μg/ml) [%] | Inhibition rate of cell proliferation after 3 days from medicine addition ([5]; U937, 20 μg/ml) [%] | Inhibition rate of cell proliferation after 3 days from medicine addition ([6]; G-361, 5 μg/ml) [%] | Inhibition rate of cell proliferation after 3 days from medicine addition ([6]; G-361, 10 μg/ml) [%] | Inhibition rate of cell proliferation after 3 days from medicine addition ([6]; G-361, 20 μg/ml) [%] | Inhibition rate of cell proliferation after 3 days from medicine addition ([7]; LU99, 5 μg/ml) [%] | Inhibition rate of cell proliferation after 3 days from medicine addition ([7]; LU99, 10 μg/ml) [%] | Inhibition rate of cell proliferation after 3 days from medicine addition ([7]; LU99, 20 μg/ml) [%] | Inhibition rate of cell proliferation after 3 days from medicine addition ([8]; 5 μg/ml) [%] | Inhibition rate of cell proliferation after 3 days from medicine addition ([8]; 10 μg/ml) [%] | Inhibition rate of cell proliferation after 3 days from medicine addition ([8]; 20 μg/ml) [%] | further results
O=C1[O][Pt]2([NH][C@@H]3CCCC[C@H]3[NH]2)[O]C1=O [Oxaliplatin, oxaliplatin, reference compound] | 38 | 43 | 48 | 46 | 71 | 73 | 82 | 87 | 67 | 90 | 99 | 50 | 59 | 74 | 38 | 40 | 49 | 58 | 75 | 87 | Inhibition rate of cell proliferation after 3 days from medicine addition ([2]; DU145, 20 μg/ml): 81%; Inhibition rate of cell proliferation after 3 days from medicine addition ([4]; Jurkat E6.1, 5 μg/ml): 90%; Inhibition rate of cell proliferation after 3 days from medicine addition ([4]; Jurkat E6.1, 10 μg/ml): 94%; Inhibition rate of cell proliferation after 3 days from medicine addition ([4]; Jurkat E6.1, 20 μg/ml): 97%; Inhibition rate of cell proliferation after 3 days from medicine addition ([9]; HL60, 5 μg/ml): 73%; Inhibition rate of cell proliferation after 3 days from medicine addition ([9]; HL60, 10 μg/ml): 86%; Inhibition rate of cell proliferation after 3 days from medicine addition ([9]; HL60, 20 μg/ml): 93%
NC1CCCC12CCCC2N.O=C1CC(=O)[O][Pt]([Cl])([Cl])[O]1 [Compound 2, Dichloro complexes (G) of the malonato((R,R,R)-spiro[4,4]nonane-1,6-diamine)platinum(IV)] | 52 | 77 | 87 | 51 | 76 | – | – | – | 100 | 100 | 100 | – | – | – | – | – | – | 78 | 90 | 82 | Inhibition rate of cell proliferation after 3 days from medicine addition ([2]; DU145, 20 μg/ml): 84%
NC1CCCC12CCCC2N.O=C1CC(=O)[O][Pt]([Cl])([Cl])[O]1 [Compound 1, dichloromalonato((1S,5S,6S)-spiro[4.4]nonane-1,6-diamine)platinum(IV)] | – | – | – | – | – | – | – | – | 98 | 102 | 101 | – | – | – | – | – | – | 53 | 75 | 88 | Inhibition rate of cell proliferation after 3 days from medicine addition ([4]; Jurkat E6.1, 5 μg/ml): 92%; Inhibition rate of cell proliferation after 3 days from medicine addition ([4]; Jurkat E6.1, 10 μg/ml): 97%; Inhibition rate of cell proliferation after 3 days from medicine addition ([4]; Jurkat E6.1, 20 μg/ml): 100%; Inhibition rate of cell proliferation after 3 days from medicine addition ([9]; HL60, 5 μg/ml): 91%; Inhibition rate of cell proliferation after 3 days from medicine addition ([9]; HL60, 10 μg/ml): 97%; Inhibition rate of cell proliferation after 3 days from medicine addition ([9]; HL60, 20 μg/ml): 99%
NC1CCCC12CCCC2N.[Cl][Pt]([Cl])([Cl])[Cl] [Compound 6, tetrachloro((R,R,R)-spiro[4.4]nonane-1,6-diamine)platinum(IV)] | 78 | 81 | 81 | – | – | 88 | 80 | 76 | – | – | – | 89 | 96 | 98 | 89 | 96 | 98 | – | – | – | –
NC1CCCC12CCCC2N.[Cl][Pt]([Cl])([Cl])[Cl] [Compound 5, Tetrachloro((S,S,S)-spiro[4.4]nonane-1,6-diamine)platinum(IV)] | 79 | 86 | 80 | – | – | 90 | 93 | 87 | – | – | – | 83 | 95 | 98 | 65 | 84 | 91 | – | – | – | –

From patent US20140221475A1, “PLATINUM(IV) COMPLEXES AND PHARMACEUTICAL COMPOSITION CONTAINING THE SAME” (UNITECH CO., LTD., priority 2011, published 2014)
